Laboratory results taken from PMC11502502 (Nature cancer, 2024).
Several values for one entry are separate records, joined by “and”; a condition that tells them apart may be missing. Equal entries are not always repeated.

Assays:
[1] = test system: hiPS cell-derived cardiomyocytes; experiment: hiPS cell-derived cardiomyocytes: extracellular troponin I (AlphaLISA); format: cell-based, human
[2] = test system: hiPS cell-derived cardiomyocytes; experiment: hiPS cell-derived cardiomyocytes: DAPI-stained number of nuclei; format: cell-based, human
[3] = test system: hiPS cell-derived cardiomyocytes; experiment: hiPS cell-derived cardiomyocytes: cell viability (ATP levels, cell titer glow)
[4] = test system: hiPS cell-derived cardiomyocytes; experiment: hiPS cell-derived cardiomyocytes: activation of caspases 3 and 7; format: cell-based, human; details: 1 μM, 72 h
[5] = test system: hiPS cell-derived cardiomyocytes; experiment: hiPS cell-derived cardiomyocytes: extracellular LDH; format: cell-based, human; details: 1 μM, 72 h

- Extracellular troponin I ([1]; Doxorubicin - wash, 48h): 5.76 and 7.195 and 6.893
- Extracellular troponin I ([1]; Doxorubicin - wash, 72h): 12.7295 and 11.4567 and 13.7321
- Extracellular troponin I ([1]; Doxorubicin, 3h): 0.7061 and 0.6741 and 0.6927
- Extracellular troponin I ([1]; Doxorubicin, 6h): 2.491 and 1.893 and 3.419
- Extracellular troponin I ([1]; Doxorubicin, 48h): 9.842 and 16.5962 and 13.2372
- Extracellular troponin I ([1]; Doxorubicin, 72h): 30.5761 and 27.6931 and 29.1909
- Nuclear counts ([2]; 1 μM, 72 h): decreased nuclear counts
- DAPI stained number of nuclei ([2]; Doxorubicin - wash, 3h): 0.4105 and 0.3857 and 0.4592
- DAPI stained number of nuclei ([2]; Doxorubicin - wash, 6h): 0.9721 and 0.9984 and 0.8453
- DAPI stained number of nuclei ([2]; Doxorubicin - wash, 24h): 0.5586 and 0.4572 and 0.5102
- DAPI stained number of nuclei ([2]; Doxorubicin - wash, 48h): 0.8181 and 0.8435 and 0.8812
- DAPI stained number of nuclei ([2]; Doxorubicin - wash, 72h): 0.2447 and 0.2247 and 0.2518
- DAPI stained number of nuclei ([2]; Doxorubicin, 3h): 0.3508 and 0.3671 and 0.4582
- DAPI stained number of nuclei ([2]; Doxorubicin, 6h): 0.9886 and 0.9511 and 0.985
- DAPI stained number of nuclei ([2]; Doxorubicin, 24h): 0.3141 and 0.2601 and 0.2627
- DAPI stained number of nuclei ([2]; Doxorubicin, 48h): 0.2344 and 0.4107 and 0.4046
- Caspase 3 activation [4]: time-dependent activation of caspase 3
- LDH release [5]: increased LDH release
SMILES: COc1cccc2c1C(=O)c1c(O)c3c(c(O)c1C2=O)C[C@@](O)(C(=O)CO)C[C@@H]3O[C@H]1C[C@H](N)[C@H](O)[C@H](C)O1 [doxorubicin]
- ATP levels ([3]; 1 μM, 72 h): reduced ATP levels
- Cell viability via cell titer glow ([3]; Doxorubicin - wash, 3h): 0.9604 and 0.941 and 0.9405
- Cell viability via cell titer glow ([3]; Doxorubicin - wash, 6h): 0.9905 and 0.9749 and 0.9586
- Cell viability via cell titer glow ([3]; Doxorubicin - wash, 24h): 0.9393 and 0.938 and 0.976
- Cell viability via cell titer glow ([3]; Doxorubicin - wash, 48h): 0.6883 and 0.7253 and 0.7219
- Cell viability via cell titer glow ([3]; Doxorubicin - wash, 72h): 0.5187 and 0.5467 and 0.5116
- Cell viability via cell titer glow ([3]; Doxorubicin, 3h): 0.9456 and 0.9453 and 0.963
- Cell viability via cell titer glow ([3]; Doxorubicin, 6h): 0.9853 and 1.049 and 1.001
- Cell viability via cell titer glow ([3]; Doxorubicin, 24h): 0.9003 and 0.8578 and 0.8897
- Cell viability via cell titer glow ([3]; Doxorubicin, 48h): 0.5823 and 0.6777 and 0.6323
- Cell viability via cell titer glow ([3]; Doxorubicin, 72h): 0.4355 and 0.3955 and 0.4606
